In patent US11292798B2, “Merocyanine-based compound and biomolecular labeling dye, kit and contrast agent composition comprising same” (SFC CO., LTD., priority 2017, dated 2022):

Assay: absorption spectrum, light emission spectrum, molecular extinction coefficient and quantum efficiency in solvents
Assay type: physicochemical

SMILES: COC(=O)C1=CC2=C3N(CCC2OC1=O)c1ccccc1C3(C)C (centres unmarked) [Compound 1]
- ε (molecular extinction coefficient) (solvent DMSO): 63,000 Lmol^−1cm^−1
- λem (solvent DMSO): 479 nm
- λex (solvent DMSO): 456 nm
- φ (quantum efficiency) (solvent DMSO): 0.900

SMILES: CC1(C)C2=C3C=C(C(=O)[O-])C(=O)OC3CCN2c2ccc(S(=O)(=O)[O-])cc21.[Na+].[Na+] (centres unmarked) [Compound 2]
- ε (molecular extinction coefficient) (solvent CH2Cl2): 20,000 Lmol^−1cm^−1
- λem (solvent CH2Cl2): 495 nm
- λex (solvent CH2Cl2): 429 nm
- φ (quantum efficiency) (solvent CH2Cl2): 0.169
- ε (molecular extinction coefficient) (solvent DMSO): 30,000 Lmol^−1cm^−1
- λem (solvent DMSO): 500 nm
- λex (solvent DMSO): 468 nm
- φ (quantum efficiency) (solvent DMSO): 0.768
- ε (molecular extinction coefficient) (solvent H2O): 45,000 Lmol^−1cm^−1
- λem (solvent H2O): 489 nm
- λex (solvent H2O): 453 nm
- φ (quantum efficiency) (solvent H2O): 0.718
- ε (molecular extinction coefficient) (solvent MeOH): 50,000 Lmol^−1cm^−1
- λem (solvent MeOH): 493 nm
- λex (solvent MeOH): 463 nm
- φ (quantum efficiency) (solvent MeOH): 0.625
- ε (molecular extinction coefficient) (solvent PBS): 44,000 Lmol^−1cm^−1
- λem (solvent PBS): 487 nm
- λex (solvent PBS): 451 nm
- φ (quantum efficiency) (solvent PBS): 0.796

SMILES: CC1(C)C2=C3C=CC(=O)OC3CCN2c2ccc(S(=O)(=O)[O-])cc21.[Na+] (centres unmarked) [Compound 3]
- ε (molecular extinction coefficient) (solvent CH2Cl2): 22,000 Lmol^−1cm^−1
- λem (solvent CH2Cl2): 464 nm
- λex (solvent CH2Cl2): 403 nm
- φ (quantum efficiency) (solvent CH2Cl2): 0.227
- ε (molecular extinction coefficient) (solvent DMSO): 27,000 Lmol^−1cm^−1
- λem (solvent DMSO): 470 nm
- λex (solvent DMSO): 416 nm
- φ (quantum efficiency) (solvent DMSO): 0.645
- ε (molecular extinction coefficient) (solvent H2O): 28,000 Lmol^−1cm^−1
- λem (solvent H2O): 492 nm
- λex (solvent H2O): 423 nm
- φ (quantum efficiency) (solvent H2O): 0.764
- ε (molecular extinction coefficient) (solvent MeOH): 27,000 Lmol^−1cm^−1
- λem (solvent MeOH): 484 nm
- λex (solvent MeOH): 410 nm
- φ (quantum efficiency) (solvent MeOH): 0.667
- ε (molecular extinction coefficient) (solvent PBS): 28,000 Lmol^−1cm^−1
- λem (solvent PBS): 492 nm
- λex (solvent PBS): 423 nm
- φ (quantum efficiency) (solvent PBS): 0.759

SMILES: CC1(C)C2=C3C=C(C(=O)[O-])C(=O)OC3CCN2c2ccccc21.[Na+] (centres unmarked) [Compound 5]
- ε (molecular extinction coefficient) (solvent DMSO): 49,000 Lmol^−1cm^−1
- λem (solvent DMSO): 490 nm
- λex (solvent DMSO): 466 nm
- φ (quantum efficiency) (solvent DMSO): 0.913
- ε (molecular extinction coefficient) (solvent EtOH): 51,000 Lmol^−1cm^−1
- λem (solvent EtOH): 485 nm
- λex (solvent EtOH): 462 nm
- φ (quantum efficiency) (solvent EtOH): 0.412
- ε (molecular extinction coefficient) (solvent H2O): 50,000 Lmol^−1cm^−1
- λem (solvent H2O): 483 nm
- λex (solvent H2O): 452 nm
- φ (quantum efficiency) (solvent H2O): 0.062
- ε (molecular extinction coefficient) (solvent PBS): 49,000 Lmol^−1cm^−1
- λem (solvent PBS): 483 nm
- λex (solvent PBS): 454 nm
- φ (quantum efficiency) (solvent PBS): 0.633

SMILES: COC(=O)C1=CC2=C3N(CCC2OC1=O)c1ccc2ccccc2c1C3(C)C (centres unmarked) [Compound 6]
- ε (molecular extinction coefficient) (solvent DMSO): 53,000 Lmol^−1cm^−1
- λem (solvent DMSO): 503 nm
- λex (solvent DMSO): 474 nm
- φ (quantum efficiency) (solvent DMSO): 0.928

SMILES: CC(=O)C1=CC2=C3N(CCC2OC1=O)c1ccc2ccccc2c1C3(C)C (centres unmarked) [Compound 9]
- ε (molecular extinction coefficient) (solvent DMSO): 47,000 Lmol^−1cm^−1
- λem (solvent DMSO): 516 nm
- λex (solvent DMSO): 492 nm
- φ (quantum efficiency) (solvent DMSO): 0.910

SMILES: CC1(C)C2=C3C=C(C(=O)CCCC(=O)[O-])C(=O)OC3CCN2c2ccc3cc(S(=O)(=O)[O-])ccc3c21.[Na+].[Na+] (centres unmarked) [Compound 16]
- ε (molecular extinction coefficient) (solvent CH2Cl2): 49,000 Lmol^−1cm^−1
- λem (solvent CH2Cl2): 515 nm
- λex (solvent CH2Cl2): 488 nm
- φ (quantum efficiency) (solvent CH2Cl2): 0.137
- ε (molecular extinction coefficient) (solvent DMSO): 47,000 Lmol^−1cm^−1
- λem (solvent DMSO): 519 nm
- λex (solvent DMSO): 494 nm
- φ (quantum efficiency) (solvent DMSO): 0.935
- ε (molecular extinction coefficient) (solvent EtOH): 47,000 Lmol^−1cm^−1
- λem (solvent EtOH): 516 nm
- λex (solvent EtOH): 490 nm
- φ (quantum efficiency) (solvent EtOH): 0.872
- ε (molecular extinction coefficient) (solvent H2O): 48,000 Lmol^−1cm^−1
- λem (solvent H2O): 516 nm
- λex (solvent H2O): 492 nm
- φ (quantum efficiency) (solvent H2O): 0.405
- ε (molecular extinction coefficient) (solvent PBS): 51,000 Lmol^−1cm^−1
- λem (solvent PBS): 516 nm
- λex (solvent PBS): 492 nm
- φ (quantum efficiency) (solvent PBS): 0.417

SMILES: COC(=O)C1=CC2=C3N(CCC2OC1=O)c1cc2c(cc1C3(C)C)-c1ccccc1C2(C)C (centres unmarked) [Compound 60]
- ε (molecular extinction coefficient) (solvent CH2Cl2): 41,000 Lmol^−1cm^−1
- λem (solvent CH2Cl2): 511 nm
- λex (solvent CH2Cl2): 470 nm
- ε (molecular extinction coefficient) (solvent DMSO): 42,000 Lmol^−1cm^−1
- λem (solvent DMSO): 513 nm
- λex (solvent DMSO): 476 nm
- ε (molecular extinction coefficient) (solvent EtOH): 42,000 Lmol^−1cm^−1
- λem (solvent EtOH): 519 nm
- λex (solvent EtOH): 474 nm
- ε (molecular extinction coefficient) (solvent H2O): 38,000 Lmol^−1cm^−1
- λem (solvent H2O): 523 nm
- λex (solvent H2O): 476 nm

SMILES: CC1(C)C2=C3C=C(C(=O)O)C(=O)OC3CCN2c2cc3c(cc21)-c1ccccc1C3(C)C (centres unmarked) [Compound 61]
- ε (molecular extinction coefficient) (solvent CH2Cl2): 46,000 Lmol^−1cm^−1
- λem (solvent CH2Cl2): 522 nm
- λex (solvent CH2Cl2): 484 nm
- ε (molecular extinction coefficient) (solvent DMSO): 47,000 Lmol^−1cm^−1
- λem (solvent DMSO): 525 nm
- λex (solvent DMSO): 480 nm
- ε (molecular extinction coefficient) (solvent EtOH): 49,000 Lmol^−1cm^−1
- λem (solvent EtOH): 525 nm
- λex (solvent EtOH): 480 nm
- ε (molecular extinction coefficient) (solvent H2O): 46,000 Lmol^−1cm^−1
- λem (solvent H2O): 516 nm
- λex (solvent H2O): 468 nm
- ε (molecular extinction coefficient) (solvent PBS): 46,000 Lmol^−1cm^−1
- λem (solvent PBS): 518 nm
- λex (solvent PBS): 468 nm

SMILES: CCOC(=O)CCCC(=O)C1=CC2=C3N(CCC2OC1=O)c1ccc2ccccc2c1C3(C)C (centres unmarked) [Compound 62]
- ε (molecular extinction coefficient) (solvent CH2Cl2): 42,000 Lmol^−1cm^−1
- λem (solvent CH2Cl2): 511 nm
- λex (solvent CH2Cl2): 486 nm
- φ (quantum efficiency) (solvent CH2Cl2): 0.944
- ε (molecular extinction coefficient) (solvent DMSO): 46,000 Lmol^−1cm^−1
- λem (solvent DMSO): 516 nm
- λex (solvent DMSO): 492 nm
- φ (quantum efficiency) (solvent DMSO): 0.958
- ε (molecular extinction coefficient) (solvent EtOH): 47,000 Lmol^−1cm^−1
- λem (solvent EtOH): 516 nm
- λex (solvent EtOH): 486 nm
- φ (quantum efficiency) (solvent EtOH): 0.820
- ε (molecular extinction coefficient) (solvent H2O): 26,000 Lmol^−1cm^−1
- λem (solvent H2O): 520 nm
- λex (solvent H2O): 468 nm
- φ (quantum efficiency) (solvent H2O): 0.194
- ε (molecular extinction coefficient) (solvent PBS): 29,000 Lmol^−1cm^−1
- λem (solvent PBS): 520 nm
- λex (solvent PBS): 486 nm
- φ (quantum efficiency) (solvent PBS): 0.193

SMILES: CC1(C)C2=C3C=C(CC(=O)O)C(=O)OC3CCN2c2ccccc21 (centres unmarked) [Compound 63]
- ε (molecular extinction coefficient) (solvent CH2Cl2): 15,000 Lmol^−1cm^−1
- λem (solvent CH2Cl2): 466 nm
- λex (solvent CH2Cl2): 414 nm
- ε (molecular extinction coefficient) (solvent DMSO): 15,000 Lmol^−1cm^−1
- λem (solvent DMSO): 470 nm
- λex (solvent DMSO): 416 nm
- ε (molecular extinction coefficient) (solvent EtOH): 15,000 Lmol^−1cm^−1
- λem (solvent EtOH): 485 nm
- λex (solvent EtOH): 416 nm
- ε (molecular extinction coefficient) (solvent H2O): 17,000 Lmol^−1cm^−1
- λem (solvent H2O): 506 nm
- λex (solvent H2O): 432 nm
- ε (molecular extinction coefficient) (solvent PBS): 17,000 Lmol^−1cm^−1
- λem (solvent PBS): 507 nm
- λex (solvent PBS): 434 nm

SMILES: CC1(C)C2=C3C=C(CC(=O)[O-])C(=O)OC3CCN2c2ccc(S(=O)(=O)[O-])cc21.[Na+].[Na+] (centres unmarked) [Compound 64]
- ε (molecular extinction coefficient) (solvent CH2Cl2): 22,000 Lmol^−1cm^−1
- λem (solvent CH2Cl2): 468 nm
- λex (solvent CH2Cl2): 414 nm
- φ (quantum efficiency) (solvent CH2Cl2): 0.01
- ε (molecular extinction coefficient) (solvent DMSO): 26,000 Lmol^−1cm^−1
- λem (solvent DMSO): 472 nm
- λex (solvent DMSO): 412 nm
- φ (quantum efficiency) (solvent DMSO): 0.84
- ε (molecular extinction coefficient) (solvent EtOH): 28,000 Lmol^−1cm^−1
- λem (solvent EtOH): 483 nm
- λex (solvent EtOH): 408 nm
- φ (quantum efficiency) (solvent EtOH): 0.78
- ε (molecular extinction coefficient) (solvent H2O): 26,000 Lmol^−1cm^−1
- λem (solvent H2O): 500 nm
- λex (solvent H2O): 422 nm
- φ (quantum efficiency) (solvent H2O): 0.91
- ε (molecular extinction coefficient) (solvent PBS): 27,000 Lmol^−1cm^−1
- λem (solvent PBS): 503 nm
- λex (solvent PBS): 423 nm
- φ (quantum efficiency) (solvent PBS): 0.95
